{
  "source": "patent US20120053119A1",
  "about": "“THERAPEUTIC METHOD FOR INCREASING PANCREATIC BETA CELL MASS” (priority 2009, published 2012)",
  "assay_type_in_all_cases": "cell-based",
  "key": {"[1]": {"tested_on": "human islets", "assay": "SDF-1 mRNA by QRT-PCR in human islets ex vivo", "conditions": "4 hours; SDF-1 10 nM or 50 nM; two cytokine mixtures", "protocol": "FIG. 29. […] 50 human islets were treated with control, cytokine mixture or SDF-1 for 4 hr, mRNA was then extracted and QRT-PCR was performed. Cytokines 1: 2 ng/ml IL-1beta, 10 ng/ml TNF-alpha, 10 ng/ml IFN-gamma. Cytokines 2: 10 ng/ml IL-1beta, 50 ng/ml TNF-alpha, 50 ng/ml IFN-gamma.\nGroups of 50 human islet cells were treated with one of vehicle control, two different cytokine mixtures (Cytokines 1: 2 ng/ml IL-1beta, 10 ng/ml TNF-alpha, 10 ng/ml IFN-gamma; Cytokines 2: 10 ng/ml IL-1beta, 50 ng/ml TNF-alpha, 50 ng/ml IFN-gamma), or SDF-1 at one of two different concentrations (10 nM or 50 nM) for 4 hours. SDF-1 mRNA was then extracted and QRT-PCR was performed."}, "[2]": {"tested_on": "INS-1 or MIN6 cells", "assay": "Thapsigargin-induced apoptosis, caspase-3 activity assay", "conditions": "SDF-1 10 nM with thapsigargin 1 microM, 16 h", "protocol": "FIG. 6. Inhibition of apoptosis by SDF-1 in INS-1 and MIN-6 cells is reversed by knock-down of betacatenin. A. Western blot analysis of extracts from MIN6 cells that were mock treated, thapsigargin-treated (1 μM) and/or siRNA transfected (0.25 mg/ml), by using anti-serum against cleaved caspase-3 (upper panel), anti-serum against cleaved PARP (middle panel) and actin antibody (lower panel) as a loading control. B. Caspase-3 activity (fluorescence/mg proteinx105) of INS-1 or MIN6 cells mock treated, thapsigargin-treated (1 μM) and/or siRNA transfected (0.25 mg/ml). Results are presented as mean±SD for n=3 independent experiments, All values are relative to the first (leftmost) bar. […] Quantification of apoptotic cells is expressed as percent apoptotic cells relative to the total cells counted (lower left panel). […]\nThapsigargin-induced apoptosis in INS-1 or MIN6 cells For western immuoblot assay (Cell Signaling), MIN6 cells were seeded into 6 well plates then treated with 1 microM thapsigargin or DMSO control for 16 h and apoptotic activity was measured by Western immunoblotting using antisera specific for cleaved (active) caspase-3 (Cell signaling #9661) and cleaved (active) PARP (Cell signaling #9548). For caspase-3 assay, INS-1 cells or MIN-6 cells in 24-well plates were treated with 1 microM thapsigargin or DMSO for 16 hand caspase-3 activity was determined (Molecular Probes). […]"}, "[3]": {"tested_on": "beta-catenin", "assay": "Western immunoblot of total and active (unphosphorylated) beta-catenin in INS-1 cells", "protocol": "FIG. 5. Inhibition of TCF7L2 or beta-catenin suppresses SDF-1 induced TOPflash activity. A. Dominant-negative TCF7L2 inhibits both basal and SDF-1-induced TOPflash activity. B. SiRNAs to beta-catenin SiRNAs inhibit SDF-1-stimulated Wnt signaling in INS-1 cells. INS-1 Cells were transfected and preincubated with TOPflash and the combination of either siRNAs 1 and 2, or scrambled siRNA and then treated for 4 hrs with 1 nM SDF-1 or control vehicle. Data are normalized for transfection efficiency by co-transfected beta-galactosidase and represent means±S.D. of three experiments. C. SDF-1 stabilizes beta-catenin through GPCR coupled Galphai/o. INS-1 cell cultures were stimulated with SDF-1 for the indicated times. Immunoblot analyses with anti-beta-catenin or anti-unphosphorylated beta-catenin (active beta-catenin).\nWestern Immunoblots Membrane immunoblots were prepared from extracts of INS-1 cells and were interrogated with antisera to beta-catenin: total protein (Santa Cruz), and active form with the mutated GSK-3 phosphorylation sites (UpState 8E7).\nThe transcriptional activation of Wnt target genes requires the association of TCF7L2 with nuclear beta-catenin. Therefore, we investigated whether active TCF7L2 is necessary for SDF-1-induced Wnt signaling. […]"}},
  "data": [
    {"substance": "SDF-1: small, secreted 70 amino acid peptide chemokine, SEQ ID NO: 1, ligand of CXCR4", "values": [
      {"measurement": "SDF-1 expression (mRNA) in human islets", "setting": "[1]", "value": "induce SDF-1 expression"},
      {"measurement": "effect on thapsigargin-induced caspase-3 activity (proapoptotic effect)", "setting": "[2]", "value": "attenuated"},
      {"measurement": "level of active beta-catenin (unphosphorylated on Ser-33 and Ser-37)", "setting": "[3]; 30 min after SDF-1 treatment", "value": "increased"},
      {"measurement": "total beta-catenin", "setting": "[3]; after 24-48 hours of SDF-1 treatment", "value": "substantial increase"}
    ]}
  ]
}
